In PubChem BioAssay AID2060487 (Molecular Pharmacology Branch, DTP, NCI, 2025):
Values joined by “and” are separate entries in the source; they are usually repeats but may differ in a detail not shown here. Identical values can stand only once. Each block holds one molecule with its values, some of them ahead of it.

Tested on: 997537-175-T-J1-PDC complex spheroid viability
Assay: Anticancer human tumor 997537-175-T-J1-PDC patient-derived colon adenocarcinoma cell line growth inhibition [GQUAD]
Conditions: for viability, T/C: stronger effect = lower value
Description: DNA G-quadruplex Stabilizer Agents in Combinations in Complex Spheroids
A high-throughput screen of multi-cell type tumor spheroids was designed to identify active combinations of DNA G-quadruplex stabilizer agents and targeted small molecules. Complex spheroids include a stromal component modeled by human endothelial cells (HUVEC) and fibroblasts modeled by human mesenchymal stem cells (MSCs). The concentration ranges selected for each drug and investigational agent were based upon clinically achievable concentrations if the clinical Cmax of the agent was known.
Compounds. The drugs and investigational agents: pidnarulex (CX-5461; NSC782164), APTO-253 (NSC789042), BRACO-19 (NSC847499), peposertib (NSC802822), ceralasertib (NSC780249), elimusertib (NSC800525), camonsertib (NSC841442), AZD-1390 (NSC803789), olaparib (NSC753686), talazoparib (NSC767125), ART-558 (NSC835418), sotorasib (NSC818433), MRTX-1133 (NSC836407), SN-38 (NSC673596), topotecan (NSC609699), etoposide (NSC141540), doxorubicin (NSC123127), gemcitabine (NSC613327), 5-fluorouracil (NSC19893), paclitaxel (NSC125973), vemurafenib (NSC761431), panobinostat (NSC761190), R-306465 (JNJ-16241199; NSC773264), adavosertib (NSC754352), TP-3654 (NSC805149), carboplatin (NSC241240), KSQ-4279 (NSC840948), and staurosporine (NSC755774) were obtained from the National Cancer Institute (NCI) Developmental Therapeutics Program Chemical Repository (34). The FDA-approved anticancer drug set is available from the NCI Developmental Therapeutics Program. […] The stock solutions were prepared in dimethyl sulfoxide (DMSO, Sigma-Aldrich, St. Louis, MO, cat. D2650) at 800-fold the tested concentration and stored at -70 degrees C prior to their use. All drugs and investigational agents were tested over a range starting from a high concentration at or near the clinical Cmax and decreasing in half-log increments. If the clinical Cmax for an agent had not been determined, the highest concentration tested was 10 microM.
2.3 Cell Culture. All cells were maintained in an incubator at 37 degrees C and 5% CO2 with 95% humidity. The PDC lines were cultured according to standard operating procedures established by the NCI PDMR. All PDCs were thawed and cultured in Matrigel-coated flasks prepared with a working solution of 1X Ham's F-12 nutrient mix, without supplementation (Invitrogen, cat. 11765054), 100 U/mL penicillin-streptomycin (Invitrogen, cat. 15140122), and 2.5% Matrigel (Corning Inc., cat. 354248) for the first three passages. The 857933-349-R-J2-PDC line was cultured in 6C/Colon 1B media, which includes advanced DMEM/F-12 (Thermo Fisher Scientific, cat. 12634028), 10 mM HEPES (Thermo Fisher Scientific, cat. 15630080), 1X GlutaMAX supplement (Thermo Fisher Scientific, cat. 35050061), 0.1 mg/mL primocin (InvivoGen, cat. ant-pm-2), 10% defined fetal bovine serum, heat inactivated (HyClone Laboratories Inc., cat. SH30070.03HI), 50% L-WRN conditioned media (ATCC, cat. CRL-3276), 1.25 mM N-Acetyl-L-cysteine (Sigma-Aldrich, cat. A9165), 10 mM nicotinamide (Sigma-Aldrich, cat. N0636), 1X B-27 supplement (Thermo Fisher Scientific, cat. 17504044), 1X N-2 supplement (Thermo Fisher Scientific, cat. 17502048), 10 microM Y-27632 dihydrochloride (Tocris Bioscience, cat. 1254), and 50 ng/mL human EGF recombinant protein (Thermo Fisher Scientific, cat. PHG0311). The 485176-168-R4-J1-PDC line was cultured in Panc media, which includes all 6C/Colon 1B media components plus 100 ng/mL human FGF-10 (Thermo Fisher Scientific, cat. 100-26), 500 nM SB-431542 (Selleckchem, cat. S1067), and gastrin (Tocris, cat. 3006).
[…]

[1] = curve of first compound, second compound 0.0316 µM
[2] = curve of first compound, second compound 0.1 µM
[3] = curve of first compound, second compound 0.316 µM
[4] = curve of first compound, second compound 1 µM
[5] = curve of first compound, second compound 3.16 µM
[6] = curve of first compound, second compound 10 µM
[7] = second compound 0.0316 µM, first compound 0.0316 µM
[8] = second compound 0.0316 µM, first compound 0.316 µM
[9] = second compound 0.1 µM, first compound 0.0316 µM
[10] = second compound 0.1 µM, first compound 0.316 µM
[11] = second compound 0.316 µM, first compound 0.0316 µM
[12] = second compound 0.316 µM, first compound 0.316 µM
[13] = second compound 1 µM, first compound 0.0316 µM
[14] = second compound 1 µM, first compound 0.316 µM
[15] = second compound 3.16 µM, first compound 0.0316 µM
[16] = second compound 3.16 µM, first compound 0.316 µM
[17] = second compound 10 µM, first compound 0.0316 µM
[18] = second compound 10 µM, first compound 0.316 µM
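Note: spheroids exposed to the agents for 7 days.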
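Throughout, for viability, T/C: 100% = DMSO vehicle control viability.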

IC50 [1]: 1900 nM
IC50 [2]: 1760 nM
IC50 [3]: 778 nM
IC50 [4]: 739 nM
IC50 [5]: 1890 nM
IC50 [6]: 1460 nM
Compound: CCCS(=O)(=O)Nc1ccc(F)c(C(=O)c2c[nH]c3ncc(-c4ccc(Cl)cc4)cc23)c1F + Cc1cnc(CNC(=O)c2c(=O)c3ccc(N4CCCN(C)CC4)nc3n3c2sc2ccccc23)cn1
viability, T/C [7]: 77.7%
viability, T/C (second compound 0.0316 µM, first compound 0.1 µM): 50.8%
viability, T/C [8]: 67.3%
viability, T/C (second compound 0.0316 µM, first compound 1 µM): 44.8%
viability, T/C (second compound 0.0316 µM, first compound 3.16 µM): 56.2%
viability, T/C (second compound 0.0316 µM, first compound 10 µM): 22.2%
viability, T/C [9]: 73.8%
viability, T/C (second compound 0.1 µM, first compound 0.1 µM): 64.7%
viability, T/C [10]: 76.1%
viability, T/C (second compound 0.1 µM, first compound 1 µM): 40.8%
viability, T/C (second compound 0.1 µM, first compound 3.16 µM): 53.1%
viability, T/C (second compound 0.1 µM, first compound 10 µM): 21.6%
viability, T/C [11]: 93.5%
viability, T/C (second compound 0.316 µM, first compound 0.1 µM): 56.2%
viability, T/C [12]: 60%
viability, T/C (second compound 0.316 µM, first compound 1 µM): 45.7%
viability, T/C (second compound 0.316 µM, first compound 3.16 µM): 55.2%
viability, T/C (second compound 0.316 µM, first compound 10 µM): 21.8%
viability, T/C [13]: 84.3%
viability, T/C (second compound 1 µM, first compound 0.1 µM): 62.7%
viability, T/C [14]: 48.4%
viability, T/C (second compound 1 µM, first compound 1 µM): 56.3%
viability, T/C (second compound 1 µM, first compound 3.16 µM): 48.2%
viability, T/C (second compound 1 µM, first compound 10 µM): 27.7%
viability, T/C [15]: 82.7%
viability, T/C (second compound 3.16 µM, first compound 0.1 µM): 58.6%
viability, T/C [16]: 62.2%
viability, T/C (second compound 3.16 µM, first compound 1 µM): 64.7%
viability, T/C (second compound 3.16 µM, first compound 3.16 µM): 42.8%
viability, T/C (second compound 3.16 µM, first compound 10 µM): 26.1%
viability, T/C [17]: 83.6%
viability, T/C (second compound 10 µM, first compound 0.1 µM): 74.2%
viability, T/C [18]: 68.8%
viability, T/C (second compound 10 µM, first compound 1 µM): 44%
viability, T/C (second compound 10 µM, first compound 3.16 µM): 51.5%
viability, T/C (second compound 10 µM, first compound 10 µM): 26.9%

IC50 (curve of compound): > 10000 nM and 1940 nM
Compound: C#Cc1c(F)ccc2cc(O)cc(-c3ncc4c(N5CC6CCC(C5)N6)nc(OCC56CCCN5CC(F)C6)nc4c3F)c12 (stereo unspecified)
viability, T/C (compound 0.0316 µM): 89% and 91.8% and 98.1%
viability, T/C (compound 0.1 µM): 89.1% and 92.2% and 103%
viability, T/C (compound 0.316 µM): 104% and 94.8% and 102%
viability, T/C (compound 1 µM): 99.4% and 67.4% and 107%
viability, T/C (compound 3.16 µM): 88.9% and 38.7% and 91.8%
viability, T/C (compound 10 µM): 106% and 35.1% and 92.4%

Compound: Cn1ncnc1[C@H]1c2n[nH]c(=O)c3cc(F)cc(c23)N[C@@H]1c1ccc(F)cc1 + CN(C)c1ccc(Nc2c3ccc(NC(=O)CCN4CCCC4)cc3nc3cc(NC(=O)CCN4CCCC4)ccc23)cc1
IC50 [1]: > 316 nM
IC50 [2]: > 316 nM
IC50 [3]: > 316 nM
IC50 [4]: > 316 nM
IC50 [5]: > 316 nM
IC50 [6]: > 316 nM
viability, T/C (second compound 0.0316 µM, first compound 0.000999 µM): 103%
viability, T/C (second compound 0.0316 µM, first compound 0.00316 µM): 88.8%
viability, T/C (second compound 0.0316 µM, first compound 0.00999 µM): 106%
viability, T/C [7]: 66.6%
viability, T/C (second compound 0.0316 µM, first compound 0.0999 µM): 81.1%
viability, T/C [8]: 68.1%
viability, T/C (second compound 0.1 µM, first compound 0.000999 µM): 100%
viability, T/C (second compound 0.1 µM, first compound 0.00316 µM): 97%
viability, T/C (second compound 0.1 µM, first compound 0.00999 µM): 91.9%
viability, T/C [9]: 63%
viability, T/C (second compound 0.1 µM, first compound 0.0999 µM): 102%
viability, T/C [10]: 82.1%
viability, T/C (second compound 0.316 µM, first compound 0.000999 µM): 94.8%
viability, T/C (second compound 0.316 µM, first compound 0.00316 µM): 102%
viability, T/C (second compound 0.316 µM, first compound 0.00999 µM): 95.2%
viability, T/C [11]: 91.2%
viability, T/C (second compound 0.316 µM, first compound 0.0999 µM): 79.7%
viability, T/C [12]: 86.8%
viability, T/C (second compound 1 µM, first compound 0.000999 µM): 84.7%
viability, T/C (second compound 1 µM, first compound 0.00316 µM): 70.5%
viability, T/C (second compound 1 µM, first compound 0.00999 µM): 79.2%
viability, T/C [13]: 86.5%
viability, T/C (second compound 1 µM, first compound 0.0999 µM): 98.5%
viability, T/C [14]: 79.6%
viability, T/C (second compound 3.16 µM, first compound 0.000999 µM): 69.4%
viability, T/C (second compound 3.16 µM, first compound 0.00316 µM): 83.6%
viability, T/C (second compound 3.16 µM, first compound 0.00999 µM): 94.6%
viability, T/C [15]: 91.3%
viability, T/C (second compound 3.16 µM, first compound 0.0999 µM): 94.8%
viability, T/C [16]: 85.9%
viability, T/C (second compound 10 µM, first compound 0.000999 µM): 77.1%
viability, T/C (second compound 10 µM, first compound 0.00316 µM): 87.5%
viability, T/C (second compound 10 µM, first compound 0.00999 µM): 91.2%
viability, T/C [17]: 78.6%
viability, T/C (second compound 10 µM, first compound 0.0999 µM): 109%
viability, T/C [18]: 104%
